Reference: ChEMBL document CHEMBL1201862, “PubChem BioAssay data set” (2004)
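1) Cells in 96-well plates. 2) Compound, 48 h, 5 concentrations. 3) Linear interpolation between surrounding doses. 4) Unreached endpoint = highest concentration. Abbreviation: GI50, concentration required for 50% inhibition of growth.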 Activity calls are given as the source filed them. Cut-off read from the data, not from the text of the source: active = GI50 up to about 1.1 µM and inactive = higher.

How the values were obtained:
Assay in all cases: NCI anticancer screen, dose series, 48 h
SK-MEL-2 = test system: SK-MEL-2
MDA-N = test system: MDA-N
OVCAR-3 = test system: OVCAR-3
MDA-MB-231 = test system: MDA-MB-231
CAKI-1 = test system: CAKI-1
OVCAR-8 = test system: OVCAR-8
ACHN = test system: ACHN
UO-31 = test system: UO-31
HL-60 = test system: HL-60
HOP-92 = test system: HOP-92
SF-539 = test system: SF-539
SNB-75 = test system: SNB-75
NCI-H522 = test system: NCI-H522
NCI/ADR-RES = test system: NCI/ADR-RES
SK-OV-3 = test system: SK-OV-3
COLO 205 = test system: COLO 205
U-251 = test system: U-251
UACC-257 = test system: UACC-257
HCT-116 = test system: HCT-116

Compound	GI50 (SK-MEL-2)	GI50 (MDA-N)	GI50 (OVCAR-3)	GI50 (MDA-MB-231)	GI50 (CAKI-1)	GI50 (OVCAR-8)	GI50 (ACHN)	GI50 (UO-31)	GI50 (HL-60)	GI50 (HOP-92)	GI50 (SF-539)	GI50 (SNB-75)	GI50 (NCI-H522)	GI50 (NCI/ADR-RES)	GI50 (SK-OV-3)	GI50 (COLO 205)	GI50 (U-251)	GI50 (UACC-257)	GI50 (HCT-116)
CC(=O)OC12c3ccccc3-c3ccccc3C1C1C(=O)OC(=O)C12 (stereo not drawn)	> 10 µM (inactive)	> 10 µM (inactive)	> 10 µM (inactive)	> 10 µM (inactive)	> 10 µM (inactive)	> 10 µM (inactive)	> 10 µM (inactive)	> 10 µM (inactive)	> 10 µM (inactive)	> 10 µM (inactive)	> 10 µM (inactive)	> 10 µM (inactive)	> 10 µM (inactive)	> 10 µM (inactive)	> 10 µM (inactive)	> 10 µM (inactive)	> 10 µM (inactive)	> 10 µM (inactive)	–
CCOC(=O)/C=C(/C(=O)OCC)n1cc(C)c(=O)n(Cc2cn(CCCCOC(C)=O)nn2)c1=O	20.1 µM (inactive)	35 µM (inactive)	14.7 µM (inactive)	27.6 µM (inactive)	2.84 µM (inactive)	12.9 µM (inactive)	5.09 µM (inactive)	15.1 µM (inactive)	–	1.21 µM (inactive)	4.54 µM (inactive)	16.3 µM (inactive)	1.88 µM (inactive)	23.6 µM (inactive)	> 100 µM (inactive)	3.55 µM (inactive)	18.5 µM (inactive)	19.8 µM (inactive)	22.7 µM (inactive)
N=C(N)N/N=C\c1c(-c2ccccc2)nc2sccn12	15.1 µM (inactive)	14.1 µM (inactive)	–	12.7 µM (inactive)	16 µM (inactive)	16.5 µM (inactive)	16.9 µM (inactive)	17.8 µM (inactive)	25.8 µM (inactive)	14.1 µM (inactive)	16.5 µM (inactive)	12.2 µM (inactive)	12.1 µM (inactive)	18.2 µM (inactive)	19 µM (inactive)	12 µM (inactive)	15.2 µM (inactive)	13.4 µM (inactive)	15.2 µM (inactive)
CCOC(=O)Cn1c(=O)c2nc(SC)sc2n(CC)c1=S	> 100 µM (inactive)	> 100 µM (inactive)	> 100 µM (inactive)	> 100 µM (inactive)	–	> 100 µM (inactive)	> 100 µM (inactive)	14.2 µM (inactive)	> 100 µM (inactive)	82.6 µM (inactive)	> 100 µM (inactive)	9.38 µM (inactive)	> 100 µM (inactive)	> 100 µM (inactive)	> 100 µM (inactive)	> 100 µM (inactive)	> 100 µM (inactive)	> 100 µM (inactive)	> 100 µM (inactive)
Cc1ccc(S(=O)(=O)NNC(=O)Nc2cccc(C(F)(F)F)c2)cc1	> 100 µM (inactive)	> 100 µM (inactive)	–	> 100 µM (inactive)	> 100 µM (inactive)	> 100 µM (inactive)	58.5 µM (inactive)	99.1 µM (inactive)	> 100 µM (inactive)	> 100 µM (inactive)	> 100 µM (inactive)	0.0284 µM (active)	38.4 µM (inactive)	61.8 µM (inactive)	> 100 µM (inactive)	> 100 µM (inactive)	96.8 µM (inactive)	57.9 µM (inactive)	97.1 µM (inactive)
O=C1CCc2ccccc2O1 [DIHYDROCOUMARIN]	> 100 µM (inactive)	53.1 µM (inactive)	> 100 µM (inactive)	> 100 µM (inactive)	> 100 µM (inactive)	> 100 µM (inactive)	> 100 µM (inactive)	> 100 µM (inactive)	> 100 µM (inactive)	> 100 µM (inactive)	–	> 100 µM (inactive)	> 100 µM (inactive)	> 100 µM (inactive)	> 100 µM (inactive)	> 100 µM (inactive)	> 100 µM (inactive)	> 100 µM (inactive)	> 100 µM (inactive)
